From paper PMC6027359, “NUC041, a Prodrug of the DNA Methytransferase Inhibitor 5-aza-2′,2′-Difluorodeoxycytidine (NUC013), Leads to Tumor Regression in a Model of Non-Small Cell Lung Cancer” (Pharmaceuticals, 2018)
Several values for one entry are separate records, joined by “and”; a condition that tells them apart may be missing. Equal values may be shown once. Entries after “also recorded” stand apart in the source; their conditions may differ. Read-outs that look alike come from different tables or passages of the source.

What was measured:
[1] = set-up: method as in PMID 28726739; conditions: mice; cited from earlier work
NSCLC NCI-H460 = experiment: GI50 in NSCLC NCI-H460 cells (CellTiter-Glo); format: cell-based, human
Experimental: (§1) As per methods previously presented, cells were grown in an appropriate medium for the cell line of interest. 96 well plates of each cell line were seeded with 5000 cells per well and left overnight. […] Luminescence was recorded on a Synergy 4.0 (BioTek Instruments, Winooski, VT, USA). Assays were performed in triplicate.

human NSCLC NCI-H460 [2] = experiment: Human NSCLC NCI-H460 xenograft; conditions: for deaths in group / mice that developed tumor ulceration: NCI-H460 xenograft; for deaths in group: n = 10 per group, NUC041: 0.6 mg group; for mice that developed tumor ulceration: NUC041 both PPD groups, evaluable mice, SC 4 of 10; for mean tumor volume at which ulceration developed: SC 2770; for Median survival: p = NS
Experimental: Survival refers to animals that were not removed from the study by death or per protocol euthanasia.
Mice with tumors in the proper volume range were arbitrarily assigned to groups. Mice received test article as described in the text. Mice were observed daily for mortality and moribundity with weights and the tumor measurements taken twice weekly. Tumor volume was determined using the formula for an ellipsoid sphere: Length × Width^2/2 = Volume (mm^3). The experiments were scheduled to last 60 days from the day of tumor implant.

Colon Cancer HCT-116 = experiment: GI50 in colon cancer HCT-116 cells (CellTiter-Glo); format: cell-based, human
Experimental: as §1

[3] = continuous infusion over seven days, patients with refractory solid tumors; cited from earlier work
human NSCLC NCI-H460 [4] = experiment: Tumor histology of NCI-H460 xenografts; format: in vivo, NCr-nu/nu mice
Excerpt: Approximately half of each tumor was fixed in 10% neutral-buffered formalin and the other half was frozen. The fixed neoplasm was trimmed, processed, embedded, and microtomed (approximately 5 µm sections). Tissue sections were mounted on glass slides, stained with hematoxylin and eosin (H&E), and coverslipped. Slides were submitted to a veterinary pathologist for a histopathologic evaluation.

[5] = tested on: human colon cancer (LoVo); experiment: Mouse xenograft model of human colon cancer (LoVo); format: in vivo, NCr-nu/nu mice
Experimental: NUC041 in LNE was tested at 30 mg/kg IV for three consecutive days a week for three weeks in a mouse xenograft model of human colon cancer (Lovo) and compared to saline control (SC).
Study initiation began when the required number of mice had tumors of approximately 40 to 75 mm^3. […] Study initiation began when the required number of mice had tumors of approximately 32 to 75 mm^3.
Mice received test article as described in the text. […] Any animal whose weight decreased more than 30% from the weight on the first day of treatment or whose tumor reached 4000 mm^3 in volume, ulcerated, sloughed off, or was moribund was euthanized prior to study termination.

[6] = Pharmacokinetics in mouse whole blood after IM NUC041 in PEG-phospholipid depot (PPD); conditions: analyte in whole blood, NUC041 3 mg/mouse IM in PPD, mice
Experimental: Quantitative determination of NUC013 and NUC041 in quenched mouse whole blood was accomplished using protein precipitation and high-performance liquid chromatography with tandem mass spectrometry detection. Gemcitabine-^13C, ^15N2 “GemC-^13C”, was used as the internal standard. NUC013, NUC041 and GemC-^13C were extracted from 50 µL whole blood using protein precipitation with acetonitrile. Extracts were analyzed by hydrophilic interaction chromatography at 35 °C, using a XBridge™ Amide column (Waters Corp., Milford, MA, USA) under isocratic conditions, with 100 mM ammonium acetate pH 9: ethanol: acetonitrile (25:25:500, v/v/v) as mobile phase A. Column effluents at a constant flow rate of 300 µL/min were analyzed by multiple reaction monitoring (MRM) using a triple quadrupole mass spectrometer in positive-ion mode (AB Sciex 4000 Q Trap, equipped with TurboV IonSpray®) (SCIEX, Framingham, MA, USA).
The calibration curve for each analyte was fitted using weighted (1/x^2) linear regression analysis of the Analyte/IS peak area ratio versus Analyte/IS concentration ratio from 5–5000 ng/mL.
Pharmacokinetic parameters were calculated from mean concentrations of NUC-041 or NUC013 in blood over time for mice using Phoenix® WinNonlin® (Version 6.3; Pharsight, A Certara Company; Cary, NC, USA).
The PEG-phospholipid depot (Latitude Pharmaceuticals, San Diego, CA, USA) comprised of S-100, DSPE-PEG 2000, sesame oil, and alcohol. These four constituents were placed in a vial, warmed to 40 °C until all products dissolved, and the vehicle was then vortexed. Subsequently, the vehicle was filtered through a 0.22 µm syringe filter and NUC041 was added. The formulated product was heated to 40 °C, vortexed, and stored at 2–8 °C.

[7] = Tolerability studies of NUC041 formulated in PPD; format: in vivo, mice
Experimental: Administration of 50 µL of PPD vehicle IM led to a weight loss of 10.9% two days following vehicle administration. NUC041 was formulated at a concentration of 60 mg/mL in this vehicle.

[8] = Pharmacokinetics in mouse whole blood after IV NUC041 in lipid nano-emulsion (LNE); conditions: analyte in whole blood, NUC041 15 mg/kg IV in LNE vehicle, mice
Excerpt: As per methods previously presented, the lipid nano-emulsion (Latitude Pharmaceuticals, San Diego, CA, USA) contained an oil phase consisting of an injectable oil and lecithin and an aqueous phase comprising a tonicity adjuster, a stabilizer, and water.

[9] = Mice 2-4 (individual), NUC041 0.6 mg/mouse qod, euthanasia day 34
[10] = Mouse 1, NUC041 2.4/3.0 mg/mouse qwk + dexamethasone, euthanasia day 35
[11] = IM, mice premedicated with dexamethasone 50 µg IP

In the case of Nc1ncn([C@@H]2O[C@H](CO)[C@@H](O)C2(F)F)c(=O)n1 [NUC013, 5-aza-2′,2′-difluorodeoxycytidine], the MTD [1] is listed as greater than 120 mg/kg, the GI50 (NSCLC NCI-H460; Homo sapiens, NCI-H460, 72 h exposure) is listed as 1570 nM and the deaths in group (human NSCLC NCI-H460 [2]) is listed as “One”. For the same molecule, the “mice that developed tumor ulceration” value (human NSCLC NCI-H460 [2]) was 1 of 10, the “hazard ratio (HR) vs SC” value (human NSCLC NCI-H460 [2]; NUC013 20 mg/kg IV qd three consecutive days per week x 4, p = 0.0018, Log rank test) was 0.14 and the GI50 (Colon Cancer HCT-116; Homo sapiens, HCT-116, 72 h exposure) was 2580 nM.
For Nc1ncn([C@H]2C[C@H](O)[C@@H](CO)O2)c(=O)n1 [decitabine], the MTD [3] is given as 2 mg/m^2 qd and the “main dose limiting toxicity” value [3] is given as “neutropenia”.
In the case of “3′,5′-di-trimethylsilyl-2′,2′-difluoro-5-azadeoxycytidine [NUC041]”, the “Tumor Volume” value (human NSCLC NCI-H460 [4]; [9]) was 3035 mm^3 and 1960 mm^3 and 936 mm^3, the Ulceration (human NSCLC NCI-H460 [4]; [9]) was “no ulceration; also recorded: ulceration” and the “Histopathology: necrosis” value (human NSCLC NCI-H460 [4]; Mice 2-4 (individual), NUC041 0.6 mg/mouse qod, euthanasia day 34, in ulcerated tumors excludes area of ulceration) was 50–60% necrosis and 10% necrosis * and 5% necrosis *. The “Histopathology: necrosis” value (human NSCLC NCI-H460 [4]; [10]) was 30–40% necrosis, the “Tumor Volume” value (human NSCLC NCI-H460 [4]; [10]) was 2746 mm^3 and the Ulceration (human NSCLC NCI-H460 [4]; [10]) was “no ulceration”. For the same molecule, the “mice with tumor ulcerations, LoVo study” value ([5]; NUC041 administered IV in LNE, SC 3/10) was 2/10, the “efficacy in xenograft model of human colon cancer (LoVo)” value ([5]; NUC041 in LNE 30 mg/kg IV) was “only moderate efficacy” and the “study days on which growth of LoVo was significantly inhibited compared to SC” value ([5]; NUC041 in LNE 30 mg/kg IV, three consecutive days a week for three weeks, p < 0.05) was 27–30 study days. It also gave an AUCinf [6] of 6261 ng·h/mL, an AUClast [6] of 6030 ng·h/mL and a Cmax [6] of 4210 ng/mL. The MRT [6] was 156 min, the T1/2 [6] was 102 min and the Tmax [6] was 30 min. For the same molecule, the Vz/F [6] was 1.172 L/kg, the “tolerability of IM injection of 3 mg per mouse” value ([7]; 50 µg IP dexamethasone 30 min prior) was “without weight loss or lethality” and the “maximum tolerated dose (MTD)” value ([7]; IM qod, no premedication, mice) was 0.6 mg/mouse. The MTD [7, 11] was greater than 3 mg/mouse, the “MTD as mean dose” value [7, 11] was greater than 123.8 mg/kg and the GI50 (NSCLC NCI-H460; 72 h exposure) was 1610 nM. For the same molecule, the “mean tumor volume at which ulceration developed” value (human NSCLC NCI-H460 [2]; 0.6 mg NUC041 group, p = 0.0068) was 1474 mm^3, the “mean tumor volume at which ulceration developed” value (human NSCLC NCI-H460 [2]; 3 mg NUC041 with dexamethasone group, p = 0.0043) was 1319 mm^3 and the deaths in group (human NSCLC NCI-H460 [2]) was “two”. For the same molecule, the “mice that developed tumor ulceration” value (human NSCLC NCI-H460 [2]) was 15 of 18, the Median survival (human NSCLC NCI-H460 [2]; NUC041 0.6 mg IM qod x 15) was 24.5 days and the peak tumor volume (human NSCLC NCI-H460 [2]; NUC041 0.6 mg group, Mice 3 and 4) was 3179 mm^3 and 1913 mm^3. The “regression in tumor volume” value (human NSCLC NCI-H460 [2]; NUC041 0.6 mg group, two individual mice with ulcerated tumors (Mice 3 and 4), day 25 to 32) was 38% and 51%, the Median survival (human NSCLC NCI-H460 [2]; NUC041 2.4 mg/mouse IM qwk x 3 then 3.0 mg/mouse qwk x 1 with 50 µg dexamethasone IP) was 25.5 days and the “survival benefit vs SC” value (human NSCLC NCI-H460 [2]; NUC041 in PPD with or without dexamethasone pretreatment) was “no survival benefit”. It also gave an AUCinf [8] of 590.6 ng·h/mL, an AUClast [8] of 580.4 ng·h/mL and a Cl [8] of 423 mL/min/kg. It also gave a Cmax [8] of 2803 ng/mL, a T1/2 [8] of 11 min and a Vss [8] of 4.431 L/kg. For the same molecule, the Tmax ([8]; for NUC041 first sampling time) was 3 min and the GI50 (Colon Cancer HCT-116; 72 h exposure) was 2800 nM.
